Here are results for 17 compounds from ChEMBL document CHEMBL3397017, “Discovery of a new series of potent prostacyclin receptor agonists with in vivo activity in rat” (Bioorg Med Chem Lett, 2015).

Data set [1] deals with T1, Prostacyclin receptor (Homo sapiens, UniProt P43119). The data set can be described thus: Agonist activity at human recombinant IP receptor expressed in CHO-K1 cells incubated for 1 hr by HTRF cAMP assay. The format is functional, cell-based. (In general: Time-resolved FRET reads energy transfer from a long-lived donor to a nearby acceptor.)
The target in data set [2] is Prostacyclin receptor (Rattus norvegicus, UniProt P43253). The data set can be described thus: Agonist activity at rat recombinant IP receptor expressed in CHO-K1 cells incubated for 1 hr by HTRF cAMP assay. The data set is classed as functional, cell-based.
Data set [3] addresses T2, Prostaglandin D2 receptor (Homo sapiens, UniProt Q13258).
T2 sequence (Q13258 whole entry): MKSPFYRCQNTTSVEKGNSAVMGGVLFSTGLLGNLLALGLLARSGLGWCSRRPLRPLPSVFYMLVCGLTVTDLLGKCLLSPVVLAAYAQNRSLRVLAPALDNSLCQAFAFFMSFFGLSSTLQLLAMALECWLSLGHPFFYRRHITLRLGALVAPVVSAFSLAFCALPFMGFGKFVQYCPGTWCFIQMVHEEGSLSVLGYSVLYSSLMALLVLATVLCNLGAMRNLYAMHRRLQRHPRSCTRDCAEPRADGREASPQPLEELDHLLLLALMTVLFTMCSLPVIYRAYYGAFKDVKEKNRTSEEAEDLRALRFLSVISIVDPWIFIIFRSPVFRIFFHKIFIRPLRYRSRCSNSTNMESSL
The data set can be described thus: Agonist activity at human recombinant DP1 receptor expressed in melanophores assessed as induction of pigment redistribution incubated for 90 mins.

Data set [4] concerns the target Prostacyclin receptor (Rattus norvegicus) (UniProt P43253). In words: Intrinsic activity at rat recombinant IP receptor expressed in CHO-K1 cells incubated for 1 hr by HTRF cAMP assay relative to 1 uM iloprost. The data set is classed as functional, cell-based.
In data set [5] the target is T1, Prostacyclin receptor. In words: Intrinsic activity at human recombinant IP receptor expressed in CHO-K1 cells incubated for 1 hr by HTRF cAMP assay relative to 1 uM iloprost. The format is functional, cell-based.
Data set [6] deals with Liver microsome. In words: Stability in rat liver microsomes. The format is ADME. For orientation: Liver microsomes are a subcellular fraction often used to study metabolism.
Data set [7] relates to Liver microsome. In words: Stability in human liver microsomes. The format is ADME.
The species named for the next data set is Homo sapiens. The data set can be described thus: Selectivity index, ratio of EC50 for human recombinant DP1 receptor to EC50 for human recombinant IP receptor.
The nature of data set [8]: Half life in sc dosed rat. As to conditions: in vivo. The data set is classed as ADME, organism-based.
The subject of data set [9] is Rattus norvegicus. In words: Prevention of right ventricular weight increase in rat model of monocrotaline-induced pulmonary arterial hypertension at 30 mg/kg, sc administered twice daily for 21 days relative to sham animal (reference value: 19 no unit). The data set is classed as functional, Heart right ventricle.
Data set [10] deals with Rattus norvegicus. The data set can be described thus: Improvement in right ventricular systolic pressure in rat model of monocrotaline-induced pulmonary arterial hypertension at 10 mg/kg, sc administered twice daily for 21 days. The format is functional, organism-based. More on the design: dose 10 mg/kg. The conditions noted are these: Heart right ventricle.
The subject of data set [11] is Rattus norvegicus. The data set can be described thus: Prevention of right ventricular weight increase in rat model of monocrotaline-induced pulmonary arterial hypertension at 10 mg/kg, sc administered twice daily for 21 days relative to sham animal (reference value: 19 no unit). The data set is classed as functional, Heart right ventricle.
The subject of data set [12] is Rattus norvegicus. In words: Prevention of right ventricular weight increase in rat model of monocrotaline-induced pulmonary arterial hypertension at 1 mg/kg, sc administered twice daily for 21 days relative to sham animal (reference value: 19 no unit). The format is functional, Heart right ventricle. The conditions noted are these: route subcutaneous.
Data set [13] concerns Rattus norvegicus. The data set can be described thus: Prevention of right ventricular weight increase in rat model of monocrotaline-induced pulmonary arterial hypertension administered subcutaneously twice daily for 21 days. The format is functional, organism-based. As to conditions: Heart right ventricle.
Data set [14] has as its target T2, Prostaglandin D2 receptor. The data set can be described thus: Agonist activity at human recombinant DP1 receptor by melanophore assay.
Data set [15] in a line: Oral bioavailability in rat. The format is ADME, organism-based. As to conditions: in vivo.
Data set [16] is described as follows: Half life in iv dosed rat. The format is ADME, organism-based. The conditions noted are these: in vivo.

Active and inactive are the calls of the source.

Sequence of Prostacyclin receptor (Rattus norvegicus, UniProt P43253) (P43253 whole entry): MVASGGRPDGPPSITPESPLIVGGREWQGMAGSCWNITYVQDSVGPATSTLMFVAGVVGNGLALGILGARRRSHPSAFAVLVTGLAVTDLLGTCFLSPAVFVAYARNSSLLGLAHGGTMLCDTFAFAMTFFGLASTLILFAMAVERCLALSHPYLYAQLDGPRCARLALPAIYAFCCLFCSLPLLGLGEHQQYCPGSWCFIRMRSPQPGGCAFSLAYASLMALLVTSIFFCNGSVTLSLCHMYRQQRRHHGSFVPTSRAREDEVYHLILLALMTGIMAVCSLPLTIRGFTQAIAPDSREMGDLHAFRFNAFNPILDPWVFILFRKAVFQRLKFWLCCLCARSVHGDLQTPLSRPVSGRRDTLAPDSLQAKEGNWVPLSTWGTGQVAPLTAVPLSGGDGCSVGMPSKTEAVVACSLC
Sequence of Prostacyclin receptor (Rattus norvegicus) (P43253 whole entry): as above
T1 sequence (P43119 whole entry): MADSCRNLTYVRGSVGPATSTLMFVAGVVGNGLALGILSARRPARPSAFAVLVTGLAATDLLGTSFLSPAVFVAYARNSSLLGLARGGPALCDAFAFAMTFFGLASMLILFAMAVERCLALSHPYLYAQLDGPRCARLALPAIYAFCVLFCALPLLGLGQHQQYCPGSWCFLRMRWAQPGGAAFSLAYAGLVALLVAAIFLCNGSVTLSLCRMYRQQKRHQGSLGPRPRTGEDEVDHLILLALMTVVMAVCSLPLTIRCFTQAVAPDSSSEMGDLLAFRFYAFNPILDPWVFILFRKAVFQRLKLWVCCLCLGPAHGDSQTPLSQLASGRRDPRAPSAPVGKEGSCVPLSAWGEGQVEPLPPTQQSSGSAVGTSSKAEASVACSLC

As a reminder, the EC50 is the concentration that produces a half-maximal response. Turning to `O=C(O)COc1cccc2c1CCC(Cn1nc(-c3ccccc3)c(-c3ccccc3)cc1=O)C2` (racemic), the concentration for a half-maximal effect (EC50) on Prostacyclin receptor [1] was 0.969 µM; at Prostacyclin receptor [2], 2.19 µM; in data set [3], 0.021 µM. The figures for the Intrinsic activity (in data set [4]; at Prostacyclin receptor [5]) were 70% and 60%, respectively.
As to `COc1ccc(-c2cc(=O)n(CC3CCc4c(cccc4OCC(=O)O)C3)nc2-c2ccccc2)cc1` (racemic), the results for the EC50 on Prostacyclin receptor [1] and at Prostacyclin receptor [2] were 2.67 µM and over 10 µM, respectively. Also, the Stability entry with Liver microsome [6] and with Liver microsome [7] was “Unstable” in each case. Also, at Prostacyclin receptor [5], the Intrinsic activity stood at 47%.
Turning to `COc1cccc(-c2cc(=O)n(CC3CCc4c(cccc4OCC(=O)O)C3)nc2-c2ccccc2)c1` (racemic), the EC50 at Prostacyclin receptor [1] worked out at 0.06 µM; at Prostacyclin receptor [2], 0.31 µM; in data set [3], 0.017 µM. In addition, the Stability result in the data set on Liver microsome [6] and in the data set with Liver microsome [7] was “Unstable” each time. Further, the figures for the Intrinsic activity (in data set [4]; at Prostacyclin receptor [5]) were 96% and 88%, respectively.
As to `Cc1cccc(-c2cc(=O)n(CC3CCc4c(cccc4OCC(=O)O)C3)nc2-c2ccccc2)c1` (racemic), the EC50 was found to be 0.18 µM on Prostacyclin receptor [1], 0.37 µM at Prostacyclin receptor [2] and 0.025 µM in data set [3]. The Intrinsic activity in data set [4] amounted to 72%; at Prostacyclin receptor [5] it was 97%.
The corresponding values for `O=C(O)COc1cccc2c1CCC(Cn1nc(-c3ccccc3)c(-c3cccc(F)c3)cc1=O)C2` (racemic) are 0.38 µM, 0.9 µM, 0.044 µM, 97% and 63%.
For the compound `COc1cccc(-c2cc(=O)n(CC3CCc4c(cccc4OCC(=O)O)C3)nc2-c2ccccc2)c1F` (racemic), the concentration giving a half-maximal response (EC50) on Prostacyclin receptor [1] was 0.037 µM; on Prostacyclin receptor [2], 0.35 µM; in [3], 0.006 µM. Also, the Stability entry in the data set on Liver microsome [6] and with Liver microsome [7] was “Unstable” in each case. Further, the values for the Intrinsic activity (in [4]; at Prostacyclin receptor [5]) were 85% and 97%, respectively.
Consider `COc1cccc(-c2nn(CC3CCc4c(cccc4OCC(=O)O)C3)c(=O)cc2-c2ccccc2)c1` (racemic), for which the concentration giving a half-maximal response (EC50) on Prostacyclin receptor [1] was 1.72 µM; at Prostacyclin receptor [2], over 10 µM. The Stability result in the data set on Liver microsome [6] and in the data set on Liver microsome [7] was “Unstable” each time. The Intrinsic activity at Prostacyclin receptor [5] is 87%.
Turning to `COc1ccc(-c2nn(CC3CCc4c(cccc4OCC(=O)O)C3)c(=O)cc2-c2ccccc2)cc1` (racemic), the EC50 is 0.0085 µM at Prostacyclin receptor [1], 0.0125 µM at Prostacyclin receptor [2] and 0.0017 µM in data set [3]. The Stability entry in the data set with Liver microsome [6] and in the data set on Liver microsome [7] was “Unstable” in each case. Besides, the Intrinsic activity in data set [4] was found to be 93%; at Prostacyclin receptor [5] it was 80%.
Turning to `COc1ccc(-c2nn(CC3CCc4c(cccc4OCC(=O)O)C3)c(=O)cc2-c2ccccc2)c(F)c1` (racemic), the EC50 at Prostacyclin receptor [1] was determined as 0.02 µM; at Prostacyclin receptor [2], 0.112 µM; in data set [3], 0.031 µM. Besides, the Stability entry with Liver microsome [6] and with Liver microsome [7] was “Unstable” throughout. The Intrinsic activity in data set [4] is 76%; at Prostacyclin receptor [5], 78%.
On to `COc1ccc(-c2nn(CC3CCc4c(cccc4OCC(=O)O)C3)c(=O)cc2-c2ccccc2)cc1F` (racemic), for which the EC50 came to 0.01 µM at Prostacyclin receptor [1], 0.051 µM at Prostacyclin receptor [2] and 0.003 µM in data set [3]. Moreover, the Stability result in the data set on Liver microsome [6] and with Liver microsome [7] was “Unstable” throughout. The figures for the Intrinsic activity (in [4]; on Prostacyclin receptor [5]) were 75% and 80%, respectively.
For the compound `COc1cccc(-c2cnn(CC3CCc4c(cccc4OCC(=O)O)C3)c(=O)c2-c2ccccc2)c1` (racemic), the results for the 50% effective concentration (EC50) (at Prostacyclin receptor [1]; at Prostacyclin receptor [2]; in [3]) were 0.14 µM, 0.69 µM and 0.048 µM, respectively. The Stability result with Liver microsome [6] and in the data set with Liver microsome [7] was “Unstable” each time. The Intrinsic activity was determined as 81% in [4] and 101% on Prostacyclin receptor [5].
With `COc1ccc(-c2cnn(CC3CCc4c(cccc4OCC(=O)O)C3)c(=O)c2-c2ccccc2)cc1` (racemic), the 50% effective concentration (EC50) on Prostacyclin receptor [1] is 1.06 µM; on Prostacyclin receptor [2] it was over 3 µM. Moreover, the Stability result with Liver microsome [6] and in the data set on Liver microsome [7] was “Unstable” in each case. Further, the Intrinsic activity on Prostacyclin receptor [5] amounted to 73%.
In general, half-life refers to the time needed for the level to fall by half in the phase considered. A low value points to fast loss. With `O=C(O)COc1cccc2c1CCC(Cn1ncc(-c3cccc(F)c3F)c(-c3ccccc3)c1=O)C2` (racemic), in the data set filed under Homo sapiens, the Ratio EC50 came to 10. In data set [8], this compound showed a half-life of 2.5 h. The EC50 stood at 0.038 µM at Prostacyclin receptor [1], 0.11 µM on Prostacyclin receptor [2], 0.036 µM in data set [3] and 0.4 µM in data set [14]. In addition, the Stability result in the data set on Liver microsome [6] and with Liver microsome [7] was “Stable” throughout. For the same compound, the “fold change (FC)” value in the data set on Rattus norvegicus [9] (route subcutaneous) is recorded as 13; in the data set on Rattus norvegicus [11] (route subcutaneous), 9; in the data set with Rattus norvegicus [12], 9. Moreover, the result with Rattus norvegicus [10] was Active. Besides, the figures for the Intrinsic activity (in [4]; at Prostacyclin receptor [5]) were 101% and 87%, respectively. Also, in the data set on Rattus norvegicus [13], the Activity entry was “Dose-dependent effect”.
On to `COc1cccc(-c2cnn(CC3CCc4c(cccc4OCC(=O)O)C3)c(=O)c2-c2ccccc2)c1F` (racemic), for which the EC50 on Prostacyclin receptor [1] is 0.01 µM; on Prostacyclin receptor [2], 0.04 µM; in data set [3] it was 0.04 µM. Besides, the Stability entry in the data set with Liver microsome [6] and in the data set with Liver microsome [7] was “Unstable” throughout. In addition, the Intrinsic activity in data set [4] was determined as 98%; at Prostacyclin receptor [5], 78%.
With `COc1ccc(-c2c(-c3ccccc3)cnn(CC3CCc4c(cccc4OCC(=O)O)C3)c2=O)cc1` (racemic), the EC50 on Prostacyclin receptor [1] was determined as 0.004 µM; on Prostacyclin receptor [2], 0.011 µM. In addition, the Stability entry in the data set on Liver microsome [6] and with Liver microsome [7] was “Unstable” each time. The results for the Intrinsic activity (in data set [4]; at Prostacyclin receptor [5]) were 105% and 72%, respectively.
`COc1ccc(-c2c(-c3ccccc3)cnn(CC3CCc4c(cccc4OCC(=O)O)C3)c2=O)cc1F` (racemic): the EC50 is 0.085 µM on Prostacyclin receptor [1] and 0.174 µM at Prostacyclin receptor [2]. For the same compound, the Stability result in the data set with Liver microsome [6] and in the data set on Liver microsome [7] was “Unstable” each time. Besides, the Intrinsic activity amounted to 100% in data set [4] and 84% on Prostacyclin receptor [5].
One may read the bioavailability as dose-corrected exposure relative to a reference, in per cent. `O=C(O)COc1cccc2c1CC[C@@H](Cn1ncc(-c3cccc(F)c3F)c(-c3ccc(F)cc3)c1=O)C2` (racemic): the EC50 worked out at 0.006 µM on Prostacyclin receptor [1], 0.2 µM at Prostacyclin receptor [2], 0.048 µM in [3] and 0.14 µM in [14]. The compound further registered a bioavailability in data set [15] of 76%. Besides, the outcome in the data set on Rattus norvegicus [9] (Heart right ventricle) and in the data set with Rattus norvegicus [11] (Heart right ventricle) was inactive. Also, the figures for the Intrinsic activity (in [4]; on Prostacyclin receptor [5]) were 100% and 98%, respectively. This compound gave a half-life in [16] of 2 h.
